Reference: US10828316B2, “Method of treating bacterial infections” (priority 2016, dated 2020)
Read-outs that look alike come from different tables or passages of the source.

What was measured:
[1] = system: E. coli EN013; experiment: MIC; type: cell-based, Escherichia coli
[2] = system: E. coli B EN0458; experiment: MIC; type: cell-based, Escherichia coli B
[3] = system: K. pneumoniae EN0401; experiment: MIC; type: cell-based
[4] = system: E. coli EN0001; experiment: MIC; type: cell-based
[5] = system: E. aerogenes EN0461; experiment: MIC; type: cell-based, Enterobacter aerogenes
[6] = system: S. epidermidis EN0456; experiment: MIC; type: cell-based, Staphylococcus epidermidis
[7] = system: P. aeruginosa EN0004; experiment: MIC; type: cell-based
[8] = system: K. pneumoniae EN0006; experiment: MIC; type: cell-based
[9] = system: S. flexneri APV00906; experiment: MIC; type: cell-based; details: S. flexneri APV00906
[10] = system: E. coli EN012; experiment: MIC; type: cell-based, Escherichia coli
[11] = system: E. coli EN002; experiment: MIC; type: cell-based, Escherichia coli
[12] = system: P. aeruginosa EN015; experiment: MIC; type: cell-based, Pseudomonas aeruginosa
[13] = system: E. coli EN001; experiment: MIC; type: cell-based, Escherichia coli
[14] = system: A. baumannii EN017; experiment: MIC; type: cell-based, Acinetobacter baumannii
[15] = system: K. pneumoniae EN0233; experiment: MIC; type: cell-based
[16] = system: E. coli strain no 2; experiment: MIC; details: Escherichia coli
[17] = system: S. sonnei APV00908; experiment: MIC; type: cell-based; details: S. sonnei APV00908
[18] = system: Helicobacter pylori APV00918; experiment: MIC; type: cell-based; details: in FdUrd+trimethoprim+uridine combination
Excerpt: (§1) Inhibition of Heliobacter is important in view of increasing resistance and its association to gastric cancer.

[19] = system: Helicobacter pylori ATTC43504; experiment: MIC; type: cell-based
Excerpt: as §1

[20] = system: K. pneumoniae EN006; experiment: MIC; type: cell-based, Klebsiella pneumoniae
[21] = system: E. coli
[22] = system: K. pneumoniae EN010; experiment: MIC; type: cell-based, Klebsiella pneumoniae
[23] = system: A. baumannii EN0007; experiment: MIC; type: cell-based, A. baumanii
[24] = system: K. pneumoniae EN011; experiment: MIC; type: cell-based, Klebsiella pneumoniae
[25] = system: K. pneumoniae EN0463; experiment: MIC; type: cell-based, Klebsiella pneumoniae
[26] = system: K. pneumoniae EN0436; experiment: MIC; type: cell-based
[27] = system: S. flexneri APV00907; experiment: MIC; type: cell-based; details: S. flexneri APV00907
[28] = system: S. typhimurium EN0466; experiment: MIC; type: cell-based, Salmonella typhimurium
[29] = system: K. oxytoca EN0392; experiment: MIC; type: cell-based, Klebsiella oxytoca
[30] = system: K. pneumoniae EN0245; experiment: MIC; type: cell-based; details: in FdUrd+trimethoprim+uridine combination
[31] = system: P. mirabilis EN0457; experiment: MIC; type: cell-based, Proteus mirabilis; details: in FdUrd+trimethoprim+uridine combination
[32] = system: S. marescens EN0454; experiment: MIC; type: cell-based, Serratia marescens; details: in FdUrd+trimethoprim+uridine combination
[33] = system: A. pittii or A. nosocomialis EN0180; experiment: MIC; type: cell-based, Acinetobacter pittii or nosocomialis; details: in FdUrd+trimethoprim+uridine combination
[34] = system: K. pneumoniae EN0140; experiment: MIC; type: cell-based; details: in FdUrd+trimethoprim+uridine combination
[35] = system: P. aeruginosa EN014; experiment: MIC; type: cell-based, Pseudomonas aeruginosa; details: in FdUrd+trimethoprim+uridine combination
[36] = system: P. mirabilis ST19 EN0445; experiment: MIC; type: cell-based, Proteus mirabilis; details: in FdUrd+trimethoprim+uridine combination
[37] = system: E. coli EN0134; experiment: MIC; type: cell-based; details: in FdUrd+trimethoprim+uridine combination
[38] = in FdUrd+trimethoprim+uridine combination
[39] = in didanosine+trimethoprim+uridine combination
[40] = in AZT+trimethoprim+uridine combination
[41] = Combination 1 (AZT+trimethoprim+uridine)
[42] = Combination 2 (same mixed with thymidine)

COc1cc(Cc2cnc(N)nc2N)cc(OC)c1OC [Trimethoprim, trimethoprim]
2.5 to 5 µg/mL: MIC ([16]; NO2, E. coli strain 2, 5 uM thymidine, uridine 10 μg/ml) | MIC ([16]; NO2, E. coli strain 2, 5 uM thymidine, uridine 100 μg/ml)
>8 µg/mL: MIC [3, 38] | MIC [3, 39] | MIC [7, 38] | MIC [7, 39] | MIC [9, 38] | MIC [17, 38] | MIC [23, 38] | MIC [23, 39] | MIC [27, 38]
1 µg/mL: MIC [8, 38] | MIC [8, 39] | MIC [9, 40] | MIC ([14]; Acinetobacter baumannii, EN017, A. baumannii EN017, Combination 1 (AZT+trimethoprim+uridine)) | MIC ([14]; Acinetobacter baumannii, EN017, A. baumannii EN017, Combination 2 (same mixed with thymidine)) | MIC ([14]; Acinetobacter baumannii, EN017, A. baumannii EN017, in AZT+trimethoprim+uridine combination) | MIC ([14]; Acinetobacter baumannii, EN017, A. baumannii EN017, in FdUrd+trimethoprim+uridine combination)
0.064 µg/mL: MIC [2, 38] | MIC [2, 39] | MIC [6, 41] | MIC [10, 38] | MIC [11, 38] | MIC [11, 39] | MIC [13, 41] | MIC [28, 41] | MIC [29, 41]
2 µg/mL: MIC ([12]; Pseudomonas aeruginosa, EN015, P. aeruginosa EN015, Combination 1 (AZT+trimethoprim+uridine)) | MIC ([12]; Pseudomonas aeruginosa, EN015, P. aeruginosa EN015, Combination 2 (same mixed with thymidine)) | MIC ([12]; Pseudomonas aeruginosa, EN015, P. aeruginosa EN015, in AZT+trimethoprim+uridine combination) | MIC ([12]; Pseudomonas aeruginosa, EN015, P. aeruginosa EN015, in FdUrd+trimethoprim+uridine combination) | MIC ([12]; Pseudomonas aeruginosa, EN015, P. aeruginosa EN015, in didanosine+trimethoprim+uridine combination) | MIC ([14]; Acinetobacter baumannii, EN017, A. baumannii EN017, in didanosine+trimethoprim+uridine combination) | MIC [27, 40]
0.125 µg/mL: MIC [4, 40] | MIC [6, 39] | MIC [10, 39] | MIC [11, 42] | MIC [18] | MIC [19, 40] | MIC [19, 38] | MIC [20, 41] | MIC ([24]; Klebsiella pneumoniae, EN011, K. pneumoniae EN011, in AZT+trimethoprim+uridine combination) | MIC ([24]; Klebsiella pneumoniae, EN011, K. pneumoniae EN011, in FdUrd+trimethoprim+uridine combination) | MIC [25, 41] | MIC [26, 40]
0.03 µg/mL: MIC [17, 40]
< 0.008 µg/mL: MIC ([1]; Escherichia coli, EN013, E. coli EN013, Combination 1 (AZT+trimethoprim+uridine)) | MIC ([1]; Escherichia coli, EN013, E. coli EN013, Combination 2 (same mixed with thymidine)) | MIC ([1]; Escherichia coli, EN013, E. coli EN013, in AZT+trimethoprim+uridine combination)
1: score at sampling ([21]; Trimethoprim 30 mg/kg, single mice)
0.25 µg/mL: MIC [5, 41] | MIC [5, 40] | MIC [8, 40] | MIC [13, 38] | MIC [13, 39] | MIC [15, 40] | MIC [22, 41] | MIC ([24]; Klebsiella pneumoniae, EN011, K. pneumoniae EN011, Combination 2 (same mixed with thymidine)) | MIC ([24]; Klebsiella pneumoniae, EN011, K. pneumoniae EN011, in didanosine+trimethoprim+uridine combination) | MIC [25, 42] | MIC [28, 38] | MIC [29, 38]
5 to 10 µg/mL: MIC ([16]; NO2, E. coli strain 2, 5 uM thymidine, uridine 0 μg/ml)
>4 µg/mL: MIC [7, 40] | MIC [23, 40]
0.5 µg/mL: MIC [4, 38] | MIC [4, 39]
8 to 16 µg/mL: MIC ([16]; NO2, read-out: MIC of trimethoprim only, E. coli strain no 2)
0.032 µg/mL: MIC ([1]; Escherichia coli, EN013, E. coli EN013, in FdUrd+trimethoprim+uridine combination) | MIC ([1]; Escherichia coli, EN013, E. coli EN013, in didanosine+trimethoprim+uridine combination) | MIC ([24]; Klebsiella pneumoniae, EN011, K. pneumoniae EN011, Combination 1 (AZT+trimethoprim+uridine))
slight inhibition: inhibition in mice infected with E. coli ([21]; murine peritonitis model)

O=c1[nH]c(=O)n([C@H]2C[C@H](O)[C@@H](CO)O2)cc1F [FdUrd]
0.032 µg/mL: MIC [2, 38] | MIC [10, 38] | MIC [11, 38]
0.06 µg/mL: MIC [18] | MIC [19, 38]
0.125 µg/mL: MIC [13, 38] | MIC [28, 38] | MIC [29, 38]
4 µg/mL: MIC [33]
0.25 µg/mL: MIC [4, 38] | MIC [25, 38] | MIC [26, 38]
0.016 µg/mL: MIC ([1]; E. coli EN013, in FdUrd+trimethoprim+uridine combination)
0.064 µg/mL: MIC ([24]; K. pneumoniae EN011, in FdUrd+trimethoprim+uridine combination)
>4 µg/mL: MIC [30] | MIC [3, 38] | MIC [32] | MIC [7, 38] | MIC [9, 38] | MIC [34] | MIC [17, 38] | MIC [35] | MIC [23, 38] | MIC [37] | MIC [27, 38]
<0.008 µg/mL: MIC [6, 38]
1 µg/mL: MIC [31] | MIC [5, 38] | MIC ([12]; P. aeruginosa EN015, in FdUrd+trimethoprim+uridine combination)
0.5 µg/mL: MIC [8, 38] | MIC ([14]; A. baumannii EN017, in FdUrd+trimethoprim+uridine combination) | MIC [15, 38] | MIC [20, 38] | MIC [22, 38] | MIC [36]
